PMC2981568 (PLoS ONE, 2010)

Experiments:
[1] = biological target: T1, MtbPRPPase (phosphoribosylpyrophosphate synthetase) (Mycobacterium tuberculosis, UniProt P9WKE3); assay: […]; inhibition curve and steady-state kinetics ([…] Pi; IC50 […] at […] Pi); format: biochemical
T1 construct: gene prs

[2] = biological target: T1, MtbPRPPase (phosphoribosylpyrophosphate synthetase); assay: biochemical
[3] = biological target: the molecule itself; assay: SEC

For Nc1ncnc2c1ncn2[C@@H]1O[C@H](COP(=O)(O)OP(=O)(O)O)[C@@H](O)[C@H]1O [ADP], the IC50 [1] was 400 µM.

Nc1nc2c(ncn2[C@@H]2O[C@H](COP(=O)(O)OP(=O)(O)O)[C@@H](O)[C@H]2O)c(=O)[nH]1 [GDP] was tested, and the IC50 [2] was greater than 5000 µM.

B1: Mycobacterium tuberculosis phosphoribosylpyrophosphate synthetase (enzyme)
chain: MSHDWTDNRKNLMLFAGRAHPELAEQVAKELDVHVTSQDAREFANGEIFVRFHESVRGCDAFVLQSCPAPVNRWLMEQLIMIDALKRGSAKRITAVMPFYPYARQDKKHRGREPISARLIADLLKTAGADRIVTVDLHTDQIQGFFDGPVDHMRGQNLLTGYIRDNYPDGNMVVVSPDSGRVRIAEKWADALGGVPLAFIHKTRDPRVPNQVVSNRVVGDVAGRTCVLIDDMIDTGGTIAGAVALLHNDGAGDVIIAATHGVLSDPAAQRLASCGAREVIVTNTLPIGEDKRFPQLTVLSIAPLLASTIRAVFENGSVTGLFDGDA
notes: also called MtbPRPPase; M. tuberculosis PRPPase; not shown: His6, N-terminal, kept
For B1, the “stoichiometry N” value [3] was 6.
